Experimental data from patent publication US11377659B2, “Short hairpin RNA (shRNA734) and use of same to positively select and eliminate genetically modified cells” (THE REGENTS OF THE UNIVERSITY OF CALIFORNIA, priority 2016, dated 2022).

Experiments:
[1] = system: human T-cell line, CD34+ cells and primary peripheral blood mononuclear cells (PBMC); test: 6TG-mediated positive selection of lentiviral vector-transduced cells in vitro; format: cell-based; details: cultured in the presence of 6TG
Method: FIG. 4. Lentiviral vector delivery of HPRT shRNA results in efficient selections of HPRT knockdown by 6TG. Selection of HPRT knockdown Molt4-CCR5, PBMC and CD34+ cell by 6TG. The shRNA vector and control vector transduced cells were cultured with or without 6TG.
The potent and non-toxic HPRT shRNA enables 6TG-mediated positive selection of lentiviral vector-transduced human T-cell line, CD34+ cells and primary peripheral blood mononuclear cells (PBMC) in vitro. A lentivirus vector was utilized to deliver sh734 and to stably knockdown HPRT in human T cell lines, primary peripheral blood mononuclear cells and CD34+ hematopoietic stem/progenitor cells.
Furthermore, the invention provides a combinatorial anti-HIV lentiviral vector expressing the HIV fusion inhibitor C46, and shRNAs for CCR5 and HPRT. […] Methotrexate (MTX) has been used to negatively select the transduced cells.
(§1) The shRNA vector and control vector transduced cells were cultured with or without 6TG. […] Whole cell lysates were analyzed by Western blot after transduction at the indicated time points.

[2] = system: hypoxanthine guanine phosphoribosyltransferase (HPRT); test: HPRT knockdown in vector transduced cells (Western blot); format: cell-based, human; details: lentiviral vector transduced cells
Method: FIG. 6. HPRT knockdown in vector transduced cells. Whole cell lysates were analyzed by Western blot after transduction at the indicated time points.
as §1

[3] = system: Molt4CCR5, PBMC and CD34+ cells; test: MTX mediated negative selection of HPRT knock down cells; format: cell-based, human; details: in vitro, 10 μM MTX; % EGFP monitored
Source text: FIG. 8. Line graphs showing MTX mediated inhibition of Dihydrofolate reductase (DHFR) induced cell death in HPRT knock down cells.
Negative selection of HPRT knock down cells by MTX is illustrated in FIG. 7, which presents a schematic illustration of MTX mediated inhibition of Dihydrofolate reductase (DHFR) induced cell death in HPRT knock down cells. […] The de novo synthesis occurs through a multi-step process and requires the contribution of four aminoacids, one PRPP, two folates and three ATP to synthesize an inosine monophosphate (IMP) molecule. HPRT catalyzes the salvage synthesis of inosine monophosphate (IMP) and guanosine monophosphate (GMP) from the purine bases hypoxanthine and guanine respectively, utilizing PRPP as a co-substrate. The HPRT defect results in the accumulation of its substrates, hypoxanthine and guanine, which are converted into uric acid by means of xanthine oxidase. Elevated APRT activity may also contribute to purine overproduction.
Molt4CCR5 (A), PBMC (B) and CD34+ (C) cells were transduced with dual shRNA vector. The transduced cells were cultured with or without 10 μM MTX. Cells were monitored for % EGFP and given fresh media containing MTX every 3 days.

[4] = humans, estimated; cited from earlier work

sh734: short hairpin RNA directed to human HPRT, coding sequence SEQ ID NO: 1 (DNA AGGATATGCCCTTGACTATTTGTCCGACATAGTCAAGGGCATATCCT; expressed or natural sequence)
positive selection of vector transduced cells by 6TG [1]: positively selected | HPRT knockdown [2]: efficient HPRT knockdown

CN(Cc1cnc2nc(N)nc(N)c2n1)c1ccc(C(=O)N[C@@H](CCC(=O)O)C(=O)O)cc1 [MTX, methotrexate]
negative selection of HPRT knock down cells by MTX [3]: negatively selected

Nc1nc2nc[nH]c2c(=S)[nH]1 [6TG, 6-thioguanine]
Absorption after oral administration [4]: 30%
